Source: patent US20060069132A1, “Azolecarboxamide herbicides” (priority 2004, published 2006)

Experiments:
large crabgrass = test: Test B pre-/postemergence herbicide test; assay type: in vivo, Digitaria sanguinalis
How it was run: (§1)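 Response was scored visually 13 to 15 days after treatment against untreated greenhouse controls, 0 meaning no effect and 100 complete control. Formulations (solvent mixture plus surfactant) went onto soil after planting, onto foliage of 1- to 4-leaf plants, and onto 2-leaf plants in a flooded paddy set including rice and barnyardgrass.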

rice = test: Test B flooded paddy test; assay type: in vivo, Oryza sativa; details: 1000 g ai/ha, scale 0 to 100 (0 no effect, 100 complete control)
How it was run: (§2)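 Postemergence plants were sprayed with formulated test chemicals at 2 to 18 cm height (1- to 4-leaf stage); paddy species were grown to the 2-leaf stage. After 13 to 15 days in a greenhouse, injury was rated visually against untreated controls on a 0–100 scale (0 = no effect, 100 = complete control).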

barnyardgrass [1] = test: Test B flooded paddy test; assay type: in vivo, Echinochloa crus-galli; details: 1000 g ai/ha, scale 0 to 100 (0 no effect, 100 complete control)
How it was run: (§3)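 Each value is a visual 0–100 response rating taken against controls 13 to 15 days after treatment in the greenhouse. Plants received formulated chemical postemergence at the 1- to 4-leaf stage or, in flooded paddy, at the 2-leaf stage.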

velvetleaf = test: Test B pre-/postemergence herbicide test; assay type: in vivo, Abutilon theophrasti
How it was run: as §1

wild oat = test: Test B postemergence herbicide test; assay type: in vivo, Avena fatua
How it was run: as §2

cocklebur = test: Test B pre-/postemergence herbicide test; assay type: in vivo, Xanthium strumarium
How it was run: (§4)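 Evaluation is visual, comparing treated with control plants on a scale where 0 means no effect and 100 means full control. Treatments were preemergence, or postemergence on seedlings 2–18 cm tall, and held 13–15 days in the greenhouse.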

blackgrass = test: Test B postemergence herbicide test; assay type: in vivo, Alopecurus myosuroides
How it was run: as §3

lambsquarters = test: Test B pre-/postemergence herbicide test; assay type: in vivo, Chenopodium album
How it was run: as §1

[2] = test system: small flower umbrella sedge; test: Test B flooded paddy test; assay type: in vivo, Cyperus difformis; details: 1000 g ai/ha, scale 0 to 100 (0 no effect, 100 complete control)
How it was run: as §3

ducksalad = test: Test B flooded paddy test; assay type: in vivo, Heteranthera limosa; details: 1000 g ai/ha, scale 0 to 100 (0 no effect, 100 complete control)
How it was run: as §3

morningglory = test: Test B pre-/postemergence herbicide test; assay type: in vivo, Ipomoea coccinea
How it was run: as §4

wheat = test: Test B postemergence herbicide test; assay type: in vivo, Triticum aestivum; parameters: key to Wheat plant response rating: 0 = no effect, 100 = complete control; details: for Wheat plant response rating: postemergence
How it was run: as §2

Surinam grass = test: Test B pre-/postemergence herbicide test; assay type: in vivo, Urochloa decumbens
How it was run: as §1

barnyardgrass [3] = test: Test B pre-/postemergence herbicide test; assay type: in vivo, Echinochloa crus-galli
How it was run: as §4

corn = test: Test B pre-/postemergence herbicide test; assay type: in vivo, Zea mays
How it was run: as §1

[4] = 125 g ai/ha, 0 = no effect, 100 = complete control, preemergence
[5] = 500 g ai/ha, visual rating, 0 = no effect, 100 = complete control, preemergence
[6] = postemergence, 125 g ai/ha, visual rating, scale 0 (no effect) to 100 (complete control)
[7] = postemergence, 500 g ai/ha, scale 0 to 100, 0 is no effect, 100 is complete control
[8] = Postemergence, 125 g ai/ha, scale 0 (no effect) to 100 (complete control)
[9] = Postemergence, 500 g ai/ha, visual rating after 13 to 15 days, scale 0 (no effect) to 100 (complete control)
[10] = Preemergence, 500 g ai/ha, scale 0 to 100
[11] = preemergence, 125 g ai/ha, 0 to 100 scale, 0 is no effect, 100 is complete control

CCNC(=O)c1ccc(F)c(NC(=O)C2CC(C(C)(C)C)=NN2CC)c1 (racemic) [Compound 269]
Crabgrass, Large plant response rating (0 to 100 scale) (large crabgrass; [4]): 100 | Plant response rating, Crabgrass, Large (large crabgrass; [5]): 100 | Crabgrass, Large plant response rating (large crabgrass; [6]): 10 | Crabgrass, Large plant response rating (large crabgrass; [7]): 20 | Rice plant response rating (rice): 80 | Barnyardgrass plant response rating (barnyardgrass [1]): 90 | Velvetleaf plant response rating (0 to 100 scale) (velvetleaf; [4]): 60 | Plant response rating, Velvetleaf (velvetleaf; [5]): 100 | Velvetleaf plant response rating (velvetleaf; [6]): 10 | Velvetleaf plant response rating (velvetleaf; [7]): 20 | Oat, Wild plant response rating (wild oat; [6]): 20 | Oat, Wild plant response rating (wild oat; [7]): 30 | Cocklebur plant response rating (0 to 100 scale) (cocklebur; [4]): 20 | Plant response rating, Cocklebur (cocklebur; [5]): 70 | Cocklebur plant response rating (cocklebur; [6]): 20 | Cocklebur plant response rating (cocklebur; [7]): 50 | Blackgrass plant response rating (blackgrass; [6]): 20 | Blackgrass plant response rating (blackgrass; [7]): 50 | Lambsquarters plant response rating (0 to 100 scale) (lambsquarters; [4]): 100 | Plant response rating, Lambsquarters (lambsquarters; [5]): 100 | Lambsquarters plant response rating (lambsquarters; [6]): 50 | Lambsquarters plant response rating (lambsquarters; [7]): 70 | Sedge, Umbrella plant response rating [2]: 80 | Ducksalad plant response rating (ducksalad): 80 | Morningglory plant response rating (0 to 100 scale) (morningglory; [4]): 10 | Plant response rating, Morningglory (morningglory; [5]): 20 | Morningglory plant response rating (morningglory; [6]): 20 | Morningglory plant response rating (morningglory; [7]): 40 | Wheat plant response rating (wheat; 125 g ai/ha, visual rating, scale 0 (no effect) to 100 (complete control)): 20 | Wheat plant response rating (wheat; 500 g ai/ha, scale 0 to 100, 0 is no effect, 100 is complete control): 30 | Surinam Grass plant response rating (0 to 100 scale) (Surinam grass; [4]): 50 | Plant response rating, Surinam Grass (Surinam grass; [5]): 100 | Surinam Grass plant response rating (Surinam grass; [6]): 10 | Surinam Grass plant response rating (Surinam grass; [7]): 20 | Barnyardgrass plant response rating (0 to 100 scale) (barnyardgrass [3]; [4]): 80 | Plant response rating, Barnyardgrass (barnyardgrass [3]; [5]): 100 | Barnyardgrass plant response rating (barnyardgrass [3]; [6]): 10 | Barnyardgrass plant response rating (barnyardgrass [3]; [7]): 30 | Corn plant response rating (0 to 100 scale) (corn; [4]): 60 | Plant response rating, Corn (corn; [5]): 80 | Corn plant response rating (corn; [6]): 10 | Corn plant response rating (corn; [7]): 30

C=Cn1nc(C(C)(C)C)cc1C(=O)Nc1cccc(C(=O)N(CC)CC)c1 [Compound 34]
Crabgrass, Large plant response rating (large crabgrass; [8]): 20 | Plant response rating, Crabgrass, Large (large crabgrass; [9]): 20 | Crabgrass, Large plant response rating (large crabgrass; [10]): 100 | Rice plant response rating (rice; visual rating, 13 to 15 days): 50 | Barnyardgrass plant response rating (barnyardgrass [1]; visual rating, 13 to 15 days): 80 | Plant response rating, Velvetleaf (velvetleaf; [9]): 50 | Velvetleaf plant response rating (velvetleaf; [10]): 60 | Plant response rating, Velvetleaf (velvetleaf; [11]): 20 | Oat, Wild plant response rating (wild oat; [8]): 10 | Plant response rating, Oat, Wild (wild oat; [9]): 10 | Cocklebur plant response rating (cocklebur; [8]): 40 | Plant response rating, Cocklebur (cocklebur; [9]): 90 | Cocklebur plant response rating (cocklebur; [10]): 10 | Blackgrass plant response rating (blackgrass; [8]): 10 | Plant response rating, Blackgrass (blackgrass; [9]): 20 | Lambsquarters plant response rating (lambsquarters; [8]): 80 | Plant response rating, Lambsquarters (lambsquarters; [9]): 90 | Lambsquarters plant response rating (lambsquarters; [10]): 100 | Plant response rating, Lambsquarters (lambsquarters; [11]): 80 | Sedge, Umbrella plant response rating ([2]; visual rating, 13 to 15 days): 80 | Ducksalad plant response rating (ducksalad; visual rating, 13 to 15 days): 80 | Morningglory plant response rating (morningglory; [10]): 20 | Plant response rating, Morningglory (morningglory; [11]): 0 | Plant response rating, Wheat (wheat; [9]): 30 | Plant response rating, Surinam Grass (Surinam grass; [9]): 50 | Surinam Grass plant response rating (Surinam grass; [10]): 80 | Plant response rating, Surinam Grass (Surinam grass; [11]): 20 | Barnyardgrass plant response rating (barnyardgrass [3]; [8]): 20 | Plant response rating, Barnyardgrass (barnyardgrass [3]; [9]): 30 | Barnyardgrass plant response rating (barnyardgrass [3]; [10]): 80 | Corn plant response rating (corn; [10]): 0
